Assay results: patent publication US4022900A, “Compositions containing 1,2,3,4-tetrahydroisoquinolines used as hypotensive agents” (Marion Laboratories, Inc., priority 1972, dated 1977)
Where a name gives a salt, the structure may show the parent alone. Read-outs that look alike come from different tables or passages of the source.

Columns and labels:
[1] = tested on: systolic blood pressure of deoxycorticosterone acetate hypertensive rats; test: Hypotensive activity in DCA/saline hypertensive rats (systolic blood pressure, tail cuff); assay type: in vivo, rat (male, CD strain); conditions: for Lowering of Blood Pressure in Hypertensive rate in mm's of Hg., 1 hr. / Lowering of Blood Pressure in Hypertensive rate in mm's of Hg., 2 hrs. / Lowering of Blood Pressure in Hypertensive rate in mm's of Hg., 4 hrs. / Lowering of Blood Pressure in Hypertensive rate in mm's of Hg., 24 hrs.: change vs predrug control, six rats; for Percent Change in Pressure from Control ± S.E., 1 Hour / Percent Change in Pressure from Control ± S.E., 2 Hours / Percent Change in Pressure from Control ± S.E., 4 Hours / Percent Change in Pressure from Control ± S.E., 24 Hours: 50 mg/kg i.p., systolic pressure, * <0.05 significance (Newman-Keuls)
Description: Hypertension was produced in weanling (30-day old) male rats of the CD strain obtained from the Charles River Breeding Laboratories (Wilmington, Mass.) by subcutaneously implanting about the dorsal surface of the neck a pellet of deoxycorticosterone acetate (DCA) containing 10 mg DCA in a mixture of Carbowax 4000 (Union Carbide) and Flexowax C light (Glyco Products). Their drinking water was replaced by a 1% sodium chloride solution, a procedure known to facilitate the development of an experimental hypertension, and they had free access to chow. Systolic blood pressure in the caudal arteries was measured indirectly by a pneumatic pulse transducer and a tail pressure cuff on a Physiograph Four recorder (Narco Bio-Systems, Inc., Houston, Texas) in unanesthetized but restrained rats prewarmed to 40° C., 10-15 minutes prior to the determination. The rats were kept at a temperature of 40° C. for all determinations of systolic pressure in an attempt to minimize variations in blood pressure due to marked changes in arterial tone caused by changes in temperature. Blood pressures were measured at intervals in the DCA-treated rats given saline and in non-treated control rats. After 20 days, the mean systolic pressure in the DCA-treated rats was above 150 mm Hg. Hypertension was regarded as being established in the rats at this stage and they were at intervals, usually beginning with the 30th day after DCA-implant in testing for hypotensive activity. Following a series of control blood pressure readings, a dose of 50 mg/kg of the compound under investigation was administered by intraperitoneal injection either in solution or as a suspension in 1% tragacanth solution to groups of six hypertensive rats. Blood pressures were redetermined at 1, 2, 4 and 24 hour periods following injection. At each interval, the systolic pressure was measured a minimum of five times in each rat and the average value was calculated. Mean values for the group were calculated from the individual average values and compared with their predrug control levels. The statistical significance of the changes produced by the compounds, in the doses employed, was tested by the "t" test as well as by an analysis of variance. The reductions in blood pressure obtained with the indicated representative tetrahydroisoquinoline compounds are shown in Table I. The code number for the compound and the example herein showing its preparation are both given in Table I.
(§1) Additional compounds have been tested. The toxicity data for the additional compounds tested, and their identity, is given in the following Table II while the blood pressure lowering activity of the compounds is given in the following Table III. The heading "Example Number" in the tables refers to the working example herein which discloses the compounds and its preparation. The test procedure used for determining the blood pressure lowering activity of the compounds is the same as that previously set forth herein. However, the figures in Table III are expressed as percentage change in blood pressure, rather than in mm of mercury change in blood pressure, as presented in Table I herein.

femoral artery of a dog = test: Peripheral vasodilator activity after administration into femoral artery of a dog; assay type: in vivo; conditions: into the femoral artery, compared with papaverine
[2] = tested on: arterial blood pressure of anesthetized dog; test: Arterial blood pressure in the anesthetized dog; assay type: in vivo; conditions: 5 mg/kg intravenously
[3] = Acute toxicity (LD50) in the mouse; conditions: in vivo; for LD50 at 24 h: read-out: Approximate Acute Toxicity (24 hrs.) In the Mouse, LD50
Description: 5-(3,4,5-trimethoxybenzamido)-2-methyl-1,2,3,4-tetrahydroisoquinoline (M-20) in mice has an LD-50 of about 125 to 250 mg/kg intraperitoneally.
as §1
Approximate Acute Toxicity (24 hrs.)
(a) Suspension in 1% tragacanth
(b) Solution in distilled water
(c) Solubilized with the aid of dilute acid

[4] = Table I, unit, species and route not given
[5] = ip, solubilized with the aid of dilute acid

| Compound | Lowering of Blood Pressure in Hypertensive rate in mm's of Hg., 1 hr. ([1]; 50 mg/kg intraperitoneal) | Lowering of Blood Pressure in Hypertensive rate in mm's of Hg., 2 hrs. ([1]; 50 mg/kg intraperitoneal) | Lowering of Blood Pressure in Hypertensive rate in mm's of Hg., 4 hrs. ([1]; 50 mg/kg intraperitoneal) | Lowering of Blood Pressure in Hypertensive rate in mm's of Hg., 24 hrs. ([1]; 50 mg/kg intraperitoneal) | peripheral vasodilator activity (femoral artery of a dog) | arterial blood pressure [2] | LD50 [3, 4] [mg/kg] | LD50 ([3]; ip, mice, intraperitoneally, about) [mg/kg] | compounds which appear most active from Table I ([1]; 50 mg/kg intraperitoneal, qualitative ranking) | Percent Change in Pressure from Control ± S.E., 1 Hour [1] [%] | Percent Change in Pressure from Control ± S.E., 2 Hours [1] [%] | Percent Change in Pressure from Control ± S.E., 4 Hours [1] [%] | Percent Change in Pressure from Control ± S.E., 24 Hours [1] | LD50 at 24 h ([3]; ip, suspension in 1% tragacanth) [mg/kg] | LD50 at 24 h [3, 5] [mg/kg] | LD50 at 24 h ([3]; ip, solution in distilled water) [mg/kg] |
| --- | --- | --- | --- | --- | --- | --- | --- | --- | --- | --- | --- | --- | --- | --- | --- | --- |
| COc1cc(C(=O)Nc2cccc3c2CCN(C)C3)cc(OC)c1OC [M-20, 5-(3,4,5-Trimethoxybenzamido)-2-methyl-1,2,3,4-tetrahydroisoquinoline] | -19±3 mm's of Hg | -26±2 mm's of Hg | -15±10 mm's of Hg | -3±2 mm's of Hg | peripheral vasodilator activity although less than that of papaverine | decreased arterial blood pressure | 125 to 250 | 125 to 250 |  |  |  |  |  |  |  |  |
| COc1cc(C(=O)Nc2cccc3c2CN(C)CC3)cc(OC)c1OC [M-65, 8-(3,4,5-Trimethoxybenzamido)-2-methyl-1,2,3,4-tetrahydroisoquinoline] | -55±10 mm's of Hg | -44±8 mm's of Hg | -27±3 mm's of Hg | -21±7 mm's of Hg |  |  | 250 to 500 |  | most active |  |  |  |  |  |  |  |
| COc1ccc(C(=O)Nc2cccc3c2CCNC3)cc1 [M-44, 5-(4-Methoxybenzamido)-1,2,3,4-tetrahydroisoquinoline HCl] |  |  |  |  |  |  |  |  |  | -8.8 ± 4.8 | -6.5 ± 3.7 | -8.3 ± 2.4 | -6.4 ± 1.3% | 500 to 1000 |  |  |
| CN1CCc2c(cccc2NC(=O)c2ccccc2I)C1 [M-70, 5-(2-Iodobenzamido)-2-methyl-1,2,3,4-tetrahydroisoquinoline] |  |  |  |  |  |  |  |  |  | -6.8 ± 2.1 | -9.9 ± 2.1 | -5.7 ± 1.9 | -0.7 ± 2.9% |  | < 31 |  |
| COc1cc(C(=O)Nc2ccc3c(c2)CCN(C)C3)cc(OC)c1OC [M-72, 6-(3,4,5-Trimethoxybenzamido)-2-methyl-1,2,3,4-tetrahydroisoquinoline HCl] |  |  |  |  |  |  |  |  |  | -21.6 ± 1.7 | -19.4 ± 4.0 | -11.9 ± 3.4 | -3.8 ± 1.3% |  |  | 188 to 250 |
| Cc1cccc(C)c1C(=O)Nc1cccc2c1CCN(C)C2 [M-58, 5-(2,6-Dimethylbenzamido)-2-methyl-1,2,3,4-tetrahydroisoquinoline] |  |  |  |  |  |  |  |  |  | -6.1 ± 1.7 | -2.4 ± 0.6 | -5.2 ± 1.8 | +2.0 ± 2.1% |  | 125 to 250 |  |
